Experimental data published in patent US20110045101A1, “FUNGICIDAL SUBSTITUTED AZOLES” (E.I. Du Pont De Nemours and Company, priority 2009, published 2011).
Marks after values point to notes of the source that are not given here.

Experiments:
Assay type in all cases: in vivo
Conditions in all cases: 100 = 100% disease control
Septoria tritici = experiment: Test G: wheat leaf blotch on wheat seedlings, sprayed the day before inoculation, visual disease rating
Outline: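 Compounds dissolved in acetone (3% of final volume), then suspended in 50/50 acetone/water with 250 ppm Trem® 014 and sprayed to run-off on seedlings at 200 ppm (≈500 g/ha) or 40 ppm where marked. Inoculation with spores followed next day; visual rating after 48 h saturated at 24° C plus 19 days at 20° C.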

Alternaria solani = experiment: Test D: tomato early blight, sprayed the day before inoculation, visual disease rating
Outline: (§1)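 Compounds were dissolved in acetone (3% of final volume), then suspended in 50/50 acetone/purified water with 250 ppm Trem® 014 surfactant. Suspensions at 200 ppm (some at 40 ppm) were sprayed to run-off, 200 ppm being equivalent to 500 g/ha.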

Botrytis cinerea = experiment: Test C: tomato Botrytis on tomato seedlings, sprayed the day before inoculation, visual disease rating
Outline: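 Compounds were dissolved in acetone (3% of final volume), then suspended in 50/50 acetone/purified water containing 250 ppm polyhydric alcohol ester surfactant. Suspensions were sprayed to run-off on tomato seedlings at 200 ppm, equivalent to 500 g/ha, or at 40 ppm where marked.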

Septoria nodorum = experiment: Test F: wheat glume blotch on wheat seedlings, sprayed the day before inoculation, visual disease rating
Outline: as §1

[1] = test system: Puccinia recondita f. sp. tritici; experiment: Test I: wheat leaf rust on wheat seedlings, sprayed the day before inoculation, visual disease rating
Outline: as §1

[2] = test system: Erysiphe graminis f. sp. tritici; experiment: Test J: wheat powdery mildew on wheat seedlings, sprayed the day before inoculation, visual disease rating
Outline: as §1

[3] = 200 ppm, 0 = no control relative to controls
[4] = 40 ppm (marked *), 0 = no control

Row | Structure (SMILES) | Test G disease control rating (Septoria tritici; [3]) | Test D disease control rating (Alternaria solani; [3]) | Test C disease control rating (Botrytis cinerea; [3]) | Test F disease control rating (Septoria nodorum; [3]) | Test I disease control rating [1, 3] | Test J disease control rating [2, 3] | Test G disease control rating (Septoria tritici; 200 ppm, 0 = no control) | Test D disease control rating (Alternaria solani; 200 ppm, 0 = no control) | Test C disease control rating (Botrytis cinerea; 200 ppm, 0 = no control) | Test F disease control rating (Septoria nodorum; 200 ppm, 0 = no control) | Test I disease control rating ([1]; 200 ppm, 0 = no control) | Test J disease control rating ([2]; 200 ppm, 0 = no control) | further results
1 | Fc1ccc(F)c(-c2c(Cl)nc(Br)n2-c2ccc(Cl)cc2)c1 [compound 85] | 98% | 100% | 73% | 11% | 96% | 100% |  |  |  |  |  |  | 
2 | Fc1ccc(-n2c(Br)nc(Cl)c2-c2c(F)cc(F)cc2F)cc1 [compound 152] |  |  |  |  |  |  | 96% | 99% | 99% | 69% | 89% | 99% | 
3 | Fc1ccc(-n2cnc(Cl)c2-c2c(F)ccc(F)c2Cl)cc1 [compound 176] |  |  |  |  |  |  | 87% | 91% | 96% | 0% | 99% | 99% | 
4 | CSc1ccc(F)c(-c2c(Cl)ncn2-c2ccc(Cl)cc2)c1F [compound 215] |  |  |  |  |  |  | 96% | 85% | 98% | 0% | 68% | 91% | 
5 | Cc1nn(C)c(-c2c(F)cc(F)cc2F)c1-c1cccc(F)c1 [compound 70] | 0% | 0% | 71% | 0% | 0% | 0% |  |  |  |  |  |  | 
6 | COc1ccc(F)c(-c2c(Cl)nc(Br)n2-c2ccc(I)cc2)c1F [compound 443] | 97% | 99% | 99% | 99% | 89% | 100% |  |  |  |  |  |  | 
7 | Cc1nc(Cl)c(-c2c(F)ccc(Br)c2F)n1-c1ccc(Cl)cc1 [compound 91] | 99% | 100% | 98% | 100% | 96% | 100% |  |  |  |  |  |  | 
8 | Fc1ccc(-c2c(Cl)nc(Br)n2-c2ccc(Cl)cc2)c(Cl)c1 [compound 51] | 94% | 100% | 94% | 100% | 97% | 99% |  |  |  |  |  |  | 
9 | COc1cc(F)c(-n2c(Br)nc(Br)c2-c2ccc(Cl)cc2)c(F)c1 [compound 242] |  |  |  |  |  |  |  |  |  |  |  |  | Test G disease control rating (Septoria tritici; [4]): 95* %; Test D disease control rating (Alternaria solani; [4]): 95* %; Test C disease control rating (Botrytis cinerea; [4]): 99* %; Test F disease control rating (Septoria nodorum; [4]): 51* %; Test I disease control rating [1, 4]: 89* %; Test J disease control rating [2, 4]: 92* %
10 | Fc1cccc(Cl)c1-c1c(Cl)nc(C(F)(F)F)n1-c1ccc(Cl)cc1 [compound 90] | 0% | 0% | 0% | 0% | 54% | 0% |  |  |  |  |  |  | 
11 | Cc1nc(Cl)n(-c2ccc(Cl)c(F)c2)c1-c1ccccc1F [compound 260] |  |  |  |  |  |  | 92% | 95% | 100% | 0% | 94% | 99% | 
12 | COc1cc(F)c(-n2cnc(Cl)c2-c2ccc(Cl)cc2)c(F)c1 [compound 277] |  |  |  |  |  |  |  |  |  |  |  |  | Test G disease control rating (Septoria tritici; [4]): 89* %; Test D disease control rating (Alternaria solani; [4]): 0* %; Test C disease control rating (Botrytis cinerea; [4]): 99* %; Test F disease control rating (Septoria nodorum; [4]): 0* %; Test I disease control rating [1, 4]: 88* %; Test J disease control rating [2, 4]: 94* %
13 | Cc1ccc(-n2c(Cl)nc(Cl)c2-c2c(F)ccc(F)c2Cl)cc1 [compound 198] |  |  |  |  |  |  | 90% | 99% | 98% | 0% | 100% | 95% | 
14 | Cc1nn(C)c(-c2c(F)cccc2F)c1-c1ccc(Cl)c(F)c1 [compound 68] | 40% | 0% | 0% | 0% | 9% | 99% |  |  |  |  |  |  | 
